Assay results from patent publication US9855220B2, “Methods of treating pancreatic cancer” (priority 2013, dated 2018).

Assays:
[1] = system: patients with locally advanced pancreatic cancer; conditions: cited from earlier work
[2] = system: patients with metastatic adenocarcinoma of the pancreas; experiment: MPACT phase 3 study: overall survival; type: in vivo, human; conditions: for median overall survival: intent-to-treat population; for Median OS 95% CI (months): intent-to-treat
From the text: (§1) Patients who had not experienced disease progression were followed with regularly scheduled spiral CT/MRI scans every 8 weeks in both arms. Patients were followed for survival until death or study closure.
The 1:1 randomization was stratified by: (1) Karnofsky performance status (PS) (70-80 versus 90-100); (2) Region (Australia, North America, Eastern/Western Europe); (3) Presence of liver metastasis (Yes vs. No).
(§2) The primary efficacy endpoint was overall survival (OS). Secondary efficacy endpoints were progression-free survival (PFS) (measured by blinded, independent radiology assessments done at 8 weeks), objective tumor response according to Response Evaluation Criteria in Solid Tumors (RECIST v. 1.0) based on Spiral computed tomography (CT) scans/magnetic resonance imaging (MRI). Other endpoints included were progression-free survival and objective response rate (ORR) by investigator review, disease control rate (DCR), time to failure (TTF), and safety/tolerability by National Cancer Institute Common Terminology Criteria for Adverse Events v. 3.0 (NCI CTCAE).
(§3) The sample size was increased prior to the interim analysis to increase the power from 80% to 90% (842 patients, 608 events) to detect a hazard ratio (HR) of 0.769 (2-sided α:0.049). 1 interim survival analysis was planned for futility. The intent-to-treat (ITT) population was evaluated for efficacy, the treated population for safety. Treatment differences in overall survival and progression-free survival were tested using stratified log-rank; objective response rates were tested using the chi-squared test.

[3] = system: patients with metastatic adenocarcinoma of the pancreas; experiment: MPACT phase 3 study: progression-free survival (independent radiological review, investigator review); type: in vivo, human; conditions: for Progression-free rate (%): independent radiological review
Method: (§4) The primary efficacy endpoint was overall survival (OS). […] 3.0 (NCI CTCAE).
(§5) 1 interim survival analysis was planned for futility.
(§6) Study endpoints were determined by analyzing the following criteria: (1) changes in serum CA 19-9 levels; (2) changes in plasma SPARC (secreted protein, acidic and rich in cysteine) levels; (3) time and duration of response (using RECIST v. 1.0); (4) disease control rate based on objective response or stable disease ≧16 weeks; (5) time to treatment failure; (6) progression-free survival and overall response rate by investigator; and (7) tumor response by PET scans using EORTC criteria and blinded radiology assessments. When assessing study endpoints, researchers examined correlations between objective tumor response as determined by CT and PET scans, molecular marker expression and efficacy, and objective tumor response as determined by PET, progression-free survival, CA 19-9 levels, SPARC levels and overall survival.

[4] = system: patients with metastatic adenocarcinoma of the pancreas; experiment: MPACT phase 3 study: objective tumor response and disease control rate (RECIST v. 1.0); type: in vivo, human
Method: as §4, §5, §6

[5] = system: patients with metastatic adenocarcinoma of the pancreas; experiment: MPACT phase 3 study: time to treatment failure; type: in vivo, human
Method: as §4, §6

[6] = system: patients with metastatic adenocarcinoma of the pancreas
From the text: as §1, §2, §3

[7] = system: patients with metastatic adenocarcinoma of the pancreas; type: in vivo
From the text: as §1

pancreatic cancer = conditions: in vivo; cited from earlier work
[8] = best response by blinded assessment
[9] = best response by blinded assessment / independent review
[10] = independent radiological review
[11] = treated population, N = 421 vs N = 402
[12] = number of patients (% of arm), N = 431 vs N = 430

SMILES: O=c1[nH]cc(F)c(=O)[nH]1 [5-FU, 5-fluororuracil]
- median overall survival [1]: 4.2 months
- median time to disease progression [1]: 0.9 months

SMILES: Nc1ccn([C@@H]2O[C@H](CO)[C@@H](O)C2(F)F)c(=O)n1 [Gemcitabine, gemcitabine]
- Patients Died, % ([2]; ITT): (83%)
- Median OS, sensitivity analysis ([2]; censor at time of 2nd line therapy): 6.8 Months
- median overall survival [2]: 6.7 (6.01-7.23) months
- median overall survival ([2]; listed as gemcitabine): 6.7 months
- Median OS 95% CI (months) ([2]; subgroup Geographic Region: Eastern Europe): 5.9 (4.67, 7.46) months
- Median OS 95% CI (months) ([2]; subgroup Geographic Region: North America): 6.8 (6.01, 7.52) months
- Median OS 95% CI (months) ([2]; subgroup Geographic Region: Western Europe): 6.9 (5.09, —)^ months
- Median OS 95% CI (months) ([2]; subgroup Pancreatic Cancer Primary Location: Head): 6.5 (5.55, 7.29) months
- Median OS 95% CI (months) ([2]; subgroup Pancreatic Cancer Primary Location: Other): 6.9 (5.98, 7.52) months
- % survival ([2]; time point 6 month): 55%
- % survival ([2]; time point 9 month): 36%
- % survival ([2]; time point 12 month (1-year survival rate)): 22%
- % survival ([2]; time point 18 month): 9%
- % survival ([2]; time point 24 month (2-year survival rate)): 4%
- N/Events, PFS by independent radiological review ([3]; ITT): 430/265
- Median Progression-Free Survival by independent radiological review ([3]; ITT population): 3.7 months
- Progression-free rate (%) ([3]; at 6 month): 25%
- Progression-free rate (%) ([3]; at 9 month): 14%
- Progression-free rate (%) ([3]; at 12 month): 9%
- Progression-free rate (%) ([3]; at 15 month): 9%
- Median Progression-Free Survival by investigator review ([3]; in vivo): 3.5 months
- N/Events, PFS by investigator review ([3]; in vivo): 430/348
- Not evaluable, % [4, 8]: 39%
- Progressive Disease, % [4, 8]: 26%
- Stable Disease, % [4, 8]: 28%
- Complete Response, % [4, 9]: 0%
- Partial Response, % [4, 9]: 7%
- ORR, blinded (independent radiological) assessment ([4]; confirmed complete or partial response, ITT): 7%
- ORR, investigator assessment ([4]; in vivo): 8%
- Stable Disease ≧16 weeks, % ([4]; independent review): 26%
- DCR (disease control rate) by independent review ([4]; objective response or stable disease ≧16 weeks): 33%
- Median TTF [5, 10]: 3.6 months
- Patients with Treatment Failure, % [5, 10]: 94%
- Patients Censored, % ([5]; time to treatment failure analysis): 6%
- Febrile Neutropenia (any grade), % ([6]; human, in vivo): 1%
- Grade ≧3 Anemia, % ([6]; human, in vivo): 12%
- Grade ≧3 Diarrhea, % ([6]; human, in vivo): 2%
- Grade ≧3 Fatigue, % ([6]; human, in vivo): 7%
- Grade ≧3 Leukopenia, % ([6]; human, in vivo): 16%
- Grade ≧3 Neuropathy, Time to Improvement by 1 grade, median ([6]; human, in vivo): 29 days
- Grade ≧3 Neuropathy, Time to Onset, median ([6]; human, in vivo): 113 days
- Grade ≧3 Neutropenia, % ([6]; human, in vivo): 27%
- Grade ≧3 Peripheral neuropathy, % ([6]; human, in vivo): <1%
- Grade ≧3 Thrombocytopenia, % ([6]; human, in vivo): 9%
- Myelosuppression: ANC, NCI CTCAE Grade 3 ([6]; human, in vivo): 82 (21) n (%)
- Myelosuppression: ANC, NCI CTCAE Grade 4 ([6]; human, in vivo): 21 (5) n (%)
- Myelosuppression: Hemoglobin, NCI CTCAE Grade 3 ([6]; human, in vivo): 42 (11) n (%)
- Myelosuppression: Hemoglobin, NCI CTCAE Grade 4 ([6]; human, in vivo): 6 (2) n (%)
- Myelosuppression: Platelet Count, NCI CTCAE Grade 3 ([6]; human, in vivo): 28 (7) n (%)
- Myelosuppression: Platelet Count, NCI CTCAE Grade 4 ([6]; human, in vivo): 8 (2) n (%)
- Subjects with at least one AE with Action of Study Drug Permanently Discontinued ([6]; human, in vivo): 95 (24%) n (%)
- Treatment Emergent AEs Resulting in Treatment Discontinuation: Blood & Lymphatic ([6]; human, in vivo): 16 (4%) n (%)
- Treatment Emergent AEs Resulting in Treatment Discontinuation: Gastrointestinal disorders ([6]; human, in vivo): 22 (5%) n (%)
- Treatment Emergent AEs Resulting in Treatment Discontinuation: General Disorders/Administration Site Condition ([6]; human, in vivo): 18 (4%) n (%)
- Treatment Emergent AEs Resulting in Treatment Discontinuation: Infections and infestations ([6]; human, in vivo): 11 (3%) n (%)
- Treatment Emergent AEs Resulting in Treatment Discontinuation: Nervous System ([6]; human, in vivo): 7 (2%) n (%)
- Treatment Emergent AEs Resulting in Treatment Discontinuation: Respiratory, Thoracic and mediastinal disorders ([6]; human, in vivo): 15 (4%) n (%)
- Treatment-Emergent Grade 3 or Higher AE: Abdominal pain ([6]; human, in vivo): 32 (8%)
- Treatment-Emergent Grade 3 or Higher AE: Anemia ([6]; human, in vivo): 32 (8%)
- Treatment-Emergent Grade 3 or Higher AE: Asthenia ([6]; human, in vivo): 17 (4%)
- Treatment-Emergent Grade 3 or Higher AE: Dehydration ([6]; human, in vivo): 10 (2%)
- Treatment-Emergent Grade 3 or Higher AE: Diarrhea ([6]; human, in vivo): 6 (1%)
- Treatment-Emergent Grade 3 or Higher AE: Fatigue ([6]; human, in vivo): 37 (9%)
- Treatment-Emergent Grade 3 or Higher AE: Leukopenia ([6]; human, in vivo): 15 (4%)
- Treatment-Emergent Grade 3 or Higher AE: Nausea ([6]; human, in vivo): 14 (3%)
- Treatment-Emergent Grade 3 or Higher AE: Neutropenia ([6]; human, in vivo): 85 (21%)
- Treatment-Emergent Grade 3 or Higher AE: Peripheral neuropathy ([6]; human, in vivo): 3 (1%)
- Treatment-Emergent Grade 3 or Higher AE: Pulmonary Embolism ([6]; human, in vivo): 26 (6%)
- Treatment-Emergent Grade 3 or Higher AE: Thrombocytopenia ([6]; human, in vivo): 33 (8%)
- Treatment-Emergent Grade 3 or Higher AE: Vomiting ([6]; human, in vivo): 15 (4%)
- Pt with at least 1 AE leading to death, % ([6]; treated population): 4%
- Subject with at Least 1 Treatment Related AE with Outcome of Death [6, 11]: 18 (4%) n (%)
- Treatment Emergent AEs with Outcome of Death: Cardiac Disorders [6, 11]: 3 (1%) n (%)
- Treatment Emergent AEs with Outcome of Death: Gastrointestinal disorders [6, 11]: 3 (1%) n (%)
- Treatment Emergent AEs with Outcome of Death: General disorders and administration site conditions [6, 11]: 3 (1%) n (%)
- Treatment Emergent AEs with Outcome of Death: Hepatobiliary disorders [6, 11]: 1 (<1%) n (%)
- Treatment Emergent AEs with Outcome of Death: Infections and infestations [6, 11]: 3 (1%) n (%)
- Treatment Emergent AEs with Outcome of Death: Neoplasm Progression [6, 11]: 2 (<1%) n (%)
- Treatment Emergent AEs with Outcome of Death: Nervous system disorders [6, 11]: 2 (<1%) n (%)
- Treatment Emergent AEs with Outcome of Death: Renal and urinary disorders [6, 11]: 1 (<1%) n (%)
- Treatment Emergent AEs with Outcome of Death: Respiratory, thoracic and mediastinal disorders [6, 11]: 3 (1%) n (%)
- Patients with ≧1 Dose Reduction, %: gemcitabine ([7]; gemcitabine component): 33%
- Reason for Therapy Discontinuation: Adverse Events [7, 12]: 73 (17%)
- Reason for Therapy Discontinuation: Adverse Events Related to Study Drug [7, 12]: 29 (7%)
- Reason for Therapy Discontinuation: Progressive Disease [7, 12]: 245 (57%)
- median overall survival [1]: 5.7 months
- median time to disease progression [1]: 2.1 months
- median overall survival (pancreatic cancer): 6.0 months
- median progression free survival (pancreatic cancer): 3.5 months
